Measurements from article PMC6480966, “Synthesis, In Silico, and In Vitro Evaluation of Anti-Leishmanial Activity of Oxadiazoles and Indolizine Containing Compounds Flagged against Anti-Targets” (Molecules, 2019).
Like-named read-outs stand apart in the source and are kept apart here.

Assays:
[1] = Cytotoxicity test on macrophages (resazurin); assay type: cell-based; conditions: mouse, RAW 264.7 macrophages, 48 h incubation
Protocol: (§1) RAW 264.7 macrophages were grown with 5% CO2 in DMEM complete medium containing Dulbecco’s Modified Eagle’s Medium (DMEM) with 100 U/mL penicillin-streptomycin, and 10% HIFBS at 37 °C.
(§2) RAW 264.7 macrophages were used for cytotoxicity testing. Cells were plated in 96-well microplates at a density of 2 × 10^4 cells per well. Twenty-four hours of incubation with 5% CO2 at 37 °C followed, and then the medium was removed and to each well, 100 μL of DMEM complete medium containing two-fold serial dilutions of the compounds were added. This was followed by 48 h of incubation with 5% CO2 at 37 °C, after which 10 μL of resazurin (450 μM) was added to each well, and further incubated with 5% CO2, in the dark for 4 h at 37 °C. Cell viability was then monitored as above. Compound cytotoxicity was expressed as CC50 (Cytotoxic Concentration 50%: concentration inhibiting the macrophages growth by 50%).

[2] = system: Leishmania donovani LV9 intramacrophage amastigotes; test: In vitro anti-leishmanial testing on intramacrophage amastigotes (RAW 264.7, Sybr Green I); assay type: cell-based; conditions: for SI = CC50/IC50 Intramacro. Amas.: CC50 RAW 264.7 / IC50 intramacrophage amastigotes; for IC50: Leishmania donovani, RAW264.7, RAW 264.7 macrophages, 48 h treatment
Protocol: (§3) Leishmania donovani promastigotes (MHOM/ET/67/HU3/LV9) were cultured with 5% CO2 in M199 complete medium containing M199 medium supplemented with 100 μM adenosine, 0.5 mg/L hemin, 40 mM Hepes pH 7.4 and 10% heat inactivated fetal bovine serum (HIFBS) in the dark at 26 °C. Late log promastigotes diluted at 1 × 10^6/mL in M199 complete medium acidified at pH 5.5 and cultured at 37 °C with 5% CO2 provided the cultures of axenic amastigotes of L. donovani.
as §1
For intramacrophage amastigote testing, RAW 264.7 macrophages were incubated with 5% CO2 at 37 °C for 24 h after being plated in 96-well microplates at a density of 2 × 10^4 cells per well. Axenic amastigotes were differentiated as described above, centrifuged at 2000 g for 10 min, re-suspended in DMEM complete medium, and added to each well to reach a 16:1 parasite to macrophage ratio. 24 h of infection with 5% CO2 at 37 °C proceeded, and extracellular parasites were removed. This was followed by addition to each well of DMEM complete medium (100 μL) containing two-fold serial dilutions of the compounds from a maximal concentration of 100 μM. The medium was removed following treatment of 48 h and replaced by Direct PCR Lysis Reagent (100 μL; Euromedex) before 3 freeze-thaw cycles at room temperature, addition of 50 μg/mL proteinase K, and a final incubation at 55 °C overnight to allow cell lysis. 10 μL of each cell extract was then added to 40 μL of Direct PCR Lysis reagent containing Sybr Green I (0.05%; Invitrogen). Mastercycler® realplex (Eppendorf) was used to monitor DNA fluorescence. Compound activity was expressed as IC50 (µM). The drug used for reference was Amphotericin B (AmB).

[3] = system: Leishmania donovani LV9 axenic amastigotes; test: In vitro anti-leishmanial testing on axenic amastigotes (resazurin); assay type: cell-based; conditions: then resazurin 24 h
Protocol: as §3
Previously described protocols were adapted for evaluation of compounds on L. donovani. For axenic amastigotes, two-fold serial dilutions of the compounds were done in 96-well microplates with 100 μL of complete medium (see above). Axenic amastigotes were then added to each well at a density of […] in a 200 μL final volume. After 72 h of incubation with 5% CO2 at 37 °C, 20 μL of resazurin (450 μM) was added to each well and further incubated with 5% CO2 at 37 °C for 24 h in the dark. Resazurin is reduced to resorufin in living cells and can be then monitored by measuring OD570nm (resorufin) and OD600nm (resazurin; Lab systems Multiskan MS). Compound activity was expressed as IC50 (µM). The drug used for reference was Amphotericin B (AmB).

RAW 264.7 macrophages = test: Cytotoxicity test on macrophages (resazurin); assay type: cell-based; conditions: as defined
Protocol: as §1, §2

[4] = system: Leishmania donovani LV9 axenic amastigotes; test: In vitro anti-leishmanial testing on axenic amastigotes (resazurin); assay type: cell-based; conditions: against Leishmania axenic amastigotes (as worded)
Leishmania = system: Leishmania; set-up: method as in PMID 18353643; conditions: read-out: IC50 of reference drug miltefosine; cited from earlier work
[5] = Table 3, read-out: Leishmania donovani LV9 Intramacrophage Amastigotes IC50 ± SD
[6] = Table 2, read-out: Toxicity on RAW 264.7 Macrophages CC50 ± SD
[7] = Table 2, read-out: Leishmania donovani Intramacrophage Amastigotes Forms IC50 ± SD
[8] = Table 2, 72 h incubation, read-out: Leishmania donovani LV9 axenic Amastigotes Forms IC50 ± SD

| Structure (SMILES) | CC50 at 48 h ([1]; Table 3, read-out: Cytotoxicity on RAW 264.7 Macrophages CC50 ± SD) | SI = CC50/IC50 Intramacro. Amas. [2] | IC50 [2, 5] | IC50 ([3]; Table 3, 72 h incubation, read-out: Leishmania donovani LV9 Axenic Amastigotes IC50 ± SD) | CC50 at 48 h [1, 6] | melting point | IC50 [2, 7] | IC50 [3, 8] | selectivity index (SI, CC50 for macrophage/IC50 for promastigotes) (RAW 264.7 macrophages) | selectivity index (SI) [4] | IC50 (Leishmania) |
| --- | --- | --- | --- | --- | --- | --- | --- | --- | --- | --- | --- |
| C[C@@H]1[C@H](O)[C@@H](C)/C=C/C=C/C=C/C=C/C=C/C=C/C=C/[C@H](O[C@@H]2O[C@H](C)[C@@H](O)[C@H](N)[C@@H]2O)C[C@@H]2O[C@](O)(C[C@@H](O)C[C@@H](O)[C@H](O)CC[C@@H](O)C[C@@H](O)CC(=O)O[C@H]1C)C[C@H](O)[C@H]2C(=O)O [AmB, Amphotericin B, reference compound] | 5.36 ± 0.52 µM | 48.7 | 0.11 ± 0.09 µM | 0.2 ± 0.08 µM | – | – | – | – | – | – | – |
| COCc1nc(-c2ccc3c(c2)OCO3)no1 [Compound 8] | – | >1.9 | – | – | > 100 µM | 56 to 57 °C | 51.3 ± 4.35 µM | 59.9 ± 6.45 µM | – | – | – |
| NC(=NO)c1cccc([N+](=O)[O-])c1 [Compound 7, 3-Nitrobenzamidoxime] | – | >2.1 | – | – | > 100 µM | 182 to 184 °C | 47.2 ± 3.12 µM | 51.2 ± 4.98 µM | – | – | – |
| Cc1csc(C=NNC(=O)c2ccco2)n1 [Compound 1, N’-[(4-Methyl-2-thiazolyl)methylene]furan-2-carbohydrazide] | – | 2.2 | – | – | 13.9 ± 2.11 µM | 121 to 124 °C | 6.25 ± 1.89 µM | 11.9 ± 1.87 µM | – | – | – |
| O=C(NN=Cc1nc2ccccc2s1)c1cccs1 [Compound 4, N’-[(2-Benzothiazolyl)methylene]thiophene-2-carbohydrazide] | – | 1.4 | – | – | 16.3 ± 1.42 µM | 231 to 234 °C | 11.2 ± 0.62 µM | 12.5 ± 0.61 µM | – | – | – |
| O=C(NN=Cc1ccc(Br)s1)c1cccs1 [Compound 2, N’-[(5-Bromo-2-thiophenyl)methylene]thiophene-2-carbohydrazide] | – | 2.2 | < 5 µM | – | 4.87 ± 0.39 µM | – | 2.18 ± 0.01 µM | 1.09 ± 0.12 µM | ≥ 2 | 2 | – |
| O=C(NN=Cc1nc2ccccc2s1)c1ccncc1 [Compound 5, N’-[(2-Benzothiazolyl)methylene]pyridine-4-carbohydrazide] | – | >1.8 | – | – | > 100 µM | 234 to 237 °C | 55.2 ± 4.77 µM | 61.5 ± 5.99 µM | – | – | – |
| COC(=O)c1cc(-c2nc3cc([N+](=O)[O-])ccc3[nH]2)n2ccc3ccccc3c12 [Compound 13, Methyl 3-(5-nitro-1H-benzo[d]imidazol-2-yl)pyrrolo[2,1-a]isoquinoline-1-carboxylate] | – | – | – | – | – | 280 °C | – | – | – | – | – |
| COC(=O)c1c(C(=O)OC)c2c3ccccc3ccn2c1-c1nc2cc([N+](=O)[O-])ccc2[nH]1 [Compound 12, Dimethyl 3-(5-nitro-1H-benzo[d]imidazol-2-yl)pyrrolo[2,1-a]isoquinoline-1,2-dicarboxylate] | – | – | – | – | > 100 µM | 162 °C | > 100 µM | > 100 µM | – | – | – |
| CCCCCCCCCCCCCCCCOP(=O)([O-])OCC[N+](C)(C)C [miltefosine] | – | – | – | – | – | – | – | – | – | – | 0.31 µM |
| O=C(NN=Cc1ccc(Br)s1)c1ccco1 [Compound 3, N’-[(5-Bromo-2-thiophenyl)methylene]furan-2-carbohydrazide] | – | – | – | – | > 100 µM | 201 to 202 °C | > 100 µM | > 100 µM | – | – | – |
| COC(=O)c1c(C(=O)OC)c2ccccn2c1-c1nc2cc([N+](=O)[O-])ccc2[nH]1 [Compound 11, Dimethyl 3-(5-nitro-1H-benzo[d]imidazol-2-yl)indolizine-1,2-dicarboxylate] | – | – | – | – | – | 234 °C | – | – | – | – | – |
